Test results from PubChem BioAssay (NCI).
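Compound exposure: 48 hours, 5 concentrations, 96-well plates. GI50 marks 50% less growth. At the TGI there is no net growth.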

Columns and labels:
Assay in all cases: growth of human tumour cells (NCI), 48 h
NCI-H226 lung = tested on: NCI-H226 lung
NCI-H23 lung = tested on: NCI-H23 lung
NCI-H460 lung = tested on: NCI-H460 lung
NCI-H522 lung = tested on: NCI-H522 lung
NCI/ADR-RES ovarian = tested on: NCI/ADR-RES ovarian
OVCAR-4 ovarian = tested on: OVCAR-4 ovarian
OVCAR-5 ovarian = tested on: OVCAR-5 ovarian
PC-3 prostate = tested on: PC-3 prostate
RPMI-8226 leukemia = tested on: RPMI-8226 leukemia
RXF 393 renal = tested on: RXF 393 renal
SF-268 CNS = tested on: SF-268 CNS
SF-295 CNS = tested on: SF-295 CNS
SF-539 CNS = tested on: SF-539 CNS
SK-MEL-2 melanoma = tested on: SK-MEL-2 melanoma
SK-MEL-28 melanoma = tested on: SK-MEL-28 melanoma
SK-MEL-5 melanoma = tested on: SK-MEL-5 melanoma
SK-OV-3 ovarian = tested on: SK-OV-3 ovarian
SN12C renal = tested on: SN12C renal
SNB-19 CNS = tested on: SNB-19 CNS
SNB-75 CNS = tested on: SNB-75 CNS
SR leukemia = tested on: SR leukemia
SW-620 colon = tested on: SW-620 colon
T-47D breast = tested on: T-47D breast
TK-10 renal = tested on: TK-10 renal
U251 CNS = tested on: U251 CNS
UACC-257 melanoma = tested on: UACC-257 melanoma
UACC-62 melanoma = tested on: UACC-62 melanoma
UO-31 renal = tested on: UO-31 renal

How did the TGI (NCI-H226 lung) turn out when `O=C(Nc1cccc(-n2cc(-c3ccncc3)c(-c3ccc(O)c(Cl)c3)n2)c1)Nc1ccc(Cl)c(C(F)(F)F)c1` was run?
Its TGI is 4.46 µM.

What about the GI50 (NCI-H23 lung) of the same compound?
The GI50 was 2.1 µM.

What about the TGI (NCI-H23 lung) of the same compound?
The TGI was 6.5 µM.

And the GI50 (NCI-H460 lung)?
The GI50 was 2.56 µM.

And the TGI (NCI-H460 lung)?
The TGI was 9.51 µM.

What about the GI50 (NCI-H522 lung) of the same compound?
Its GI50 is 1.64 µM.

And the TGI (NCI-H522 lung)?
The TGI was 4.16 µM.

And the GI50 (NCI/ADR-RES ovarian)?
The GI50 was 2.96 µM.

What about the TGI (NCI/ADR-RES ovarian) of the same compound?
Its TGI is 9.03 µM.

And the GI50 (OVCAR-4 ovarian)?
The GI50 was 2.77 µM.

What about the TGI (OVCAR-4 ovarian) of the same compound?
The TGI was 9.97 µM.

What about the GI50 (OVCAR-5 ovarian) of the same compound?
The GI50 was 3.02 µM.

What about the TGI (OVCAR-5 ovarian) of the same compound?
The TGI was 13.9 µM.

And the GI50 (PC-3 prostate)?
The GI50 was 1.77 µM.

What about the TGI (PC-3 prostate) of the same compound?
The TGI was 4.36 µM.

And the GI50 (RPMI-8226 leukemia)?
Its GI50 is 1.67 µM.

What about the TGI (RPMI-8226 leukemia) of the same compound?
Its TGI is 4.63 µM.

What about the GI50 (RXF 393 renal) of the same compound?
The GI50 was 1.19 µM.

And the TGI (RXF 393 renal)?
The TGI was 3.74 µM.

And the GI50 (SF-268 CNS)?
The GI50 was 2.46 µM.

And the TGI (SF-268 CNS)?
Its TGI is 8.1 µM.

And the GI50 (SF-295 CNS)?
The GI50 was 1.88 µM.

What about the TGI (SF-295 CNS) of the same compound?
The TGI was 5.12 µM.

And the GI50 (SF-539 CNS)?
Its GI50 is 1.76 µM.

And the TGI (SF-539 CNS)?
Its TGI is 5.99 µM.

And the GI50 (SK-MEL-2 melanoma)?
The GI50 was 2.14 µM.

What about the TGI (SK-MEL-2 melanoma) of the same compound?
The TGI was 4.28 µM.

What about the GI50 (SK-MEL-28 melanoma) of the same compound?
Its GI50 is 1.67 µM.

What about the TGI (SK-MEL-28 melanoma) of the same compound?
The TGI was 3.8 µM.

And the GI50 (SK-MEL-5 melanoma)?
The GI50 was 1.66 µM.

And the TGI (SK-MEL-5 melanoma)?
Its TGI is 3.07 µM.

What about the GI50 (SK-OV-3 ovarian) of the same compound?
The GI50 was 3.14 µM.

What about the TGI (SK-OV-3 ovarian) of the same compound?
The TGI was 9.82 µM.

And the GI50 (SN12C renal)?
The GI50 was 2.99 µM.

And the TGI (SN12C renal)?
Its TGI is 13.4 µM.

And the GI50 (SNB-19 CNS)?
Its GI50 is 3.63 µM.

What about the TGI (SNB-19 CNS) of the same compound?
The TGI was greater than 100 µM.

What about the GI50 (SNB-75 CNS) of the same compound?
The GI50 was 1.23 µM.

And the TGI (SNB-75 CNS)?
The TGI was 6.85 µM.

And the GI50 (SR leukemia)?
The GI50 was 1.6 µM.

And the TGI (SR leukemia)?
The TGI was 5.6 µM.

What about the GI50 (SW-620 colon) of the same compound?
Its GI50 is 2.78 µM.

And the TGI (SW-620 colon)?
Its TGI is 7.62 µM.

And the GI50 (T-47D breast)?
The GI50 was 2.07 µM.

And the TGI (T-47D breast)?
Its TGI is 6.83 µM.

And the GI50 (TK-10 renal)?
Its GI50 is 2.96 µM.

What about the TGI (TK-10 renal) of the same compound?
The TGI was 7.16 µM.

And the GI50 (U251 CNS)?
Its GI50 is 1.7 µM.

What about the TGI (U251 CNS) of the same compound?
The TGI was 8.02 µM.

What about the GI50 (UACC-257 melanoma) of the same compound?
Its GI50 is 1.98 µM.

And the TGI (UACC-257 melanoma)?
Its TGI is 4.39 µM.

And the GI50 (UACC-62 melanoma)?
The GI50 was 2.13 µM.

What about the TGI (UACC-62 melanoma) of the same compound?
Its TGI is 5.07 µM.

And the GI50 (UO-31 renal)?
Its GI50 is 2.65 µM.

What about the TGI (UO-31 renal) of the same compound?
Its TGI is 7.24 µM.
